How the values were obtained:
[1] = target: T1, Prostaglandin G/H synthase 1 (Ovis aries, UniProt P05979)
T1 sequence (P05979 whole entry): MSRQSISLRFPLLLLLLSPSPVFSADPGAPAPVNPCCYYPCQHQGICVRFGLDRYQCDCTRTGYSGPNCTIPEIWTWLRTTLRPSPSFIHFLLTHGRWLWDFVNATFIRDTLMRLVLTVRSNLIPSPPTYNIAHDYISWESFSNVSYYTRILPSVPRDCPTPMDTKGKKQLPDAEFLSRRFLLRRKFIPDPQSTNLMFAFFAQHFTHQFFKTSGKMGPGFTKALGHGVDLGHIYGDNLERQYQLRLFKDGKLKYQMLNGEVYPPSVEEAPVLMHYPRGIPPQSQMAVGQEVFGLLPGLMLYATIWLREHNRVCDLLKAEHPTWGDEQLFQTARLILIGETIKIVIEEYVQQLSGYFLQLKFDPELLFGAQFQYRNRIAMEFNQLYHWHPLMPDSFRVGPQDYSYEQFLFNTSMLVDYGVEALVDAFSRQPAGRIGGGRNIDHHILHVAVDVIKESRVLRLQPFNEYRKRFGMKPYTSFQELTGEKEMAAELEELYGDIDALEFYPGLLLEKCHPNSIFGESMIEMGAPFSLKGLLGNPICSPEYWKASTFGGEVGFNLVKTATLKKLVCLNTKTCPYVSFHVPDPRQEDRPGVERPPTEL
Description: Inhibition of ovine COX1 by chemiluminescence assay

Ovis aries = organism: Ovis aries; test: Selectivity index, ratio of IC50 for ovine COX1 to IC50 for ovine COX2

Compound | IC50 [1] | Ratio IC50 (Ovis aries)
CS(=O)(=O)c1ccc(C2Sc3ccccc3C(=O)N2CCc2ccccc2)cc1 (configuration not stated) | 15.9 µM | 
CS(=O)(=O)c1ccc(C2Sc3ccccc3C(=O)N2Cc2ccccc2)cc1 (configuration not stated) | 15.8 µM | 
COc1ccc(N2C(=O)c3ccccc3SC2c2ccc(S(C)(=O)=O)cc2)cc1 (configuration not stated) | 14.8 µM | 
CS(=O)(=O)c1ccc(C2Sc3ccccc3C(=O)N2c2ccccc2)cc1 (configuration not stated) | 16.5 µM | 

More lines, in order of falling IC50 [1], values ahead:

IC50 [1] | Ratio IC50 (Ovis aries) | Compound
16.1 µM | 252 | Cc1ccc(N2C(=O)c3ccccc3SC2c2ccc(S(C)(=O)=O)cc2)cc1 (configuration not stated)
13 µM |  | CS(=O)(=O)c1ccc(C2Sc3ccccc3C(=O)N2c2ccc(F)cc2)cc1 (configuration not stated)
